{"source": "patent US11141413B2", "about": "“Method of treating renal cell carcinoma using N-(4-(6,7-dimethoxyquinolin-4-yloxy)phenyl)-N′-(4-fluorophenyl)cyclopropane-1,1-dicarboxamide, (2S)-hydroxybutanedioate” (Exelixis, Inc., priority 2016, dated 2021)", "key": {"[1]": {"experiment": "Solubility in aqueous media", "type": "physicochemical"}, "[2]": {"tested_on": "advanced renal cell carcinoma", "conditions": "nivolumab study; cited from earlier work"}, "[3]": {"tested_on": "metastatic renal cell carcinoma (mRCC)", "experiment": "CABOSUN (ALLIANCE A031203) trial, cabozantinib vs sunitinib as initial targeted therapy", "protocol": "Pts were randomized 1:1 to receive Cabo (60 mg QD) or Sun (50 mg QD, 4 weeks on/2 weeks off). Pts were stratified by the IMDC risk groups (intermediate vs. poor risk) and bone metastasis (yes, no). […] Secondary endpoints included OS, investigator-assessed overall response rate (ORR), and toxicity. The Kaplan-Meier product-limit estimator was used to estimate the OS between treatment arms."}}, "data": [{"compound": "COc1cc2nccc(Oc3ccc(NC(=O)C4(C(=O)Nc5ccc(F)cc5)CC4)cc3)c2cc1OC.O=C(O)C[C@H](O)C(=O)O", "note": "[Cabozantinib (S)-malate salt, N-(4-(6,7-dimethoxyquinolin-4-yloxy)phenyl)-N′-(4-fluorophenyl)cyclopropane-1,1-dicarboxamide, (2S)-hydroxybutanedioate]", "values": [{"measurement": "Solubility in aqueous media", "setting": "[1]", "result": "practically insoluble in aqueous media"}]}, {"compound": "nivolumab", "values": [{"measurement": "Hazard ratio for death vs everolimus", "setting": "[2]", "result": 0.73}]}, {"compound": "CCN(CC)CCNC(=O)c1c(C)[nH]c(/C=C2\\C(=O)Nc3ccc(F)cc32)c1C", "note": "[sunitinib, reference compound]", "values": [{"measurement": "All-causality grade 3 or 4 adverse events", "setting": "[3]; human, in vivo", "result": 68, "unit": "%"}, {"measurement": "Diarrhea, grade 3 or 4", "setting": "[3]; human, in vivo", "result": "I1%"}, {"measurement": "Fatigue, grade 3 or 4", "setting": "[3]; human, in vivo", "result": 15, "unit": "%"}, {"measurement": "Hematologic adverse events, grade 3 or 4", "setting": "[3]; human, in vivo", "result": 22, "unit": "%"}, {"measurement": "Hypertension, grade 3 or 4", "setting": "[3]; human, in vivo", "result": 22, "unit": "%"}, {"measurement": "Palmar-plantar erythrodysesthesia, grade 3 or 4", "setting": "[3]; human, in vivo", "result": 4, "unit": "%"}, {"measurement": "Median OS", "setting": "[3]; in vivo", "result": 21.8, "unit": "months"}, {"measurement": "ORR", "setting": "[3]; in vivo", "result": 18, "unit": "%"}, {"measurement": "Median PFS", "setting": "[3]; untreated mRCC, intermediate or poor risk", "result": 5.6, "unit": "months"}]}]}
